From patent US9840498B2, “Substituted quinazolin-4-one derivatives” (NOVARTIS AG, priority 2013, dated 2017)

target: PI 3-Kinase Gamma (Homo sapiens (Human), UniProt P48736); test: Cellular U937 AKT assay for PI 3-kinase gamma; assay type: cell-based; conditions: U937 cells, MIP1α-stimulated AKT phosphorylation, read-out: Cell PI3K gamma IC50
Procedure: The U937 monocyte cell line is maintained in a basal medium of RPMI 1640 supplemented with 10% heat inactivated FCS, 100 U/ml Penicillin, 100 ug/ml streptomycin and 2 mM L-glutamine (Invitrogen). U937 suspension culture is maintained by seeding cells at a density of 0.125×10^6 cells per ml in fresh medium every three or four days. Cells are incubated at 37° C., 5% CO2. […] Before beginning the cell manipulations described below, the MSD (Meso Scale Discovery) assay plate is blocked by addition of 150 ul/well blocking buffer supplied and incubated with shaking for a minimum of one hour at room temperature. All steps of the assay must be performed quickly, with accurately timed incubation periods and observing temperature controls where indicated. […] Falcon tube, counted and centrifuged for eight minutes at 300 g at room temperature. Supernatant is aspirated, the cell pellet resuspended and washed once in HBSS (Hank's Balanced Salt Solution) by centrifugation for eight minutes at 300 g at room temperature. The cell pellet is resuspended in HBSS to a concentration of 4×10^6 per ml, and 100 μL of cell suspension added to each well of a flat-bottomed 96-well tissue culture plate. Assay plates are incubated for 1.5 hours at 37° C., 5% CO2 to allow background AKT phosphorylation to reduce before the compound stimulation step. […] Compound concentrations at this stage are 4-times the final concentration required in the assay plate. Cells are stimulated with compound or HBSS 0.8% DMSO by direct transfer of 50 ul/well from the compound dilution plate. The assay plate containing compound-treated cells is then incubated for 30 minutes at 37° C. A standard plate layout is used for all experiments. Compound-treated cells, in addition to positive control wells (“max MIP1α”), are stimulated with 50 μL per well of 40 ng/ml MIP1α (R&D Systems catalogue number 270-LD, lyophilized stock reconstituted to 50 μg/ml with PBS 0.1% BSA). Negative control wells (“min HBSS”), are stimulated with 50 μl/well of HBSS in the absence of MIP1α. […] Cells are incubated with MIP1α for 3 minutes, at 37° C., 5% CO2. After the three minute stimulation period, the assay plate is kept ice cold at all times. Assay plates are centrifuged for 2 minutes at 300 g, 4° C. and supernatant is removed by gently inverting, and then blotting the plate on tissue. Cells are then washed by gentle addition of 150 μL/well of ice cold HBSS and centrifugation at 300 g, for 5 minutes at 4° C. Supernatant is aspirated and the plate blotted as described above. The plate is placed on ice and cells are immediately treated with 35 μL per well of ice cold lysis buffer, prepared according to the kit instructions (per assay plate, to 5 ml of Tris lysis buffer add 100 μl of 50× protease inhibitor solution and 50 μl of each 100× phosphatase inhibitor solutions I and II). Plates are incubated on ice for 20 minutes before centrifugation at 841 g for 5 minutes, 4° C. Block buffer is aspirated from the MSD plate, and the plate washed four times with 300 μl/well Tris wash buffer. 25 μL of cell lysate is then transferred from the assay plate to the washed MSD plate which is sealed and incubated at room temperature for one hour with shaking. The plate is washed four times with 300 μL per well of Tris wash buffer before addition of 25 μL per well of sulfo-tag anti-total AKT/pAKT detection antibody (60 μl of 50× antibody stock is diluted in 1 ml block buffer mixed with 2 ml wash buffer) and incubated at room temperature for one hour with shaking. The plate is washed four times with 300 μl per well of Tris wash buffer and 150 μl per well of Read buffer is added, taking care to avoid the introduction of bubbles. The plate is immediately read using an MSD SECTOR Imager 6000. Results are exported in Excel and the percentage of phosphorylated AKT is calculated using the equation: % Phosphoprotein=((2*Phospho signal)/(Phospho signal+Total signal))*100. […]

Chain of PI 3-Kinase Gamma (P48736 whole entry): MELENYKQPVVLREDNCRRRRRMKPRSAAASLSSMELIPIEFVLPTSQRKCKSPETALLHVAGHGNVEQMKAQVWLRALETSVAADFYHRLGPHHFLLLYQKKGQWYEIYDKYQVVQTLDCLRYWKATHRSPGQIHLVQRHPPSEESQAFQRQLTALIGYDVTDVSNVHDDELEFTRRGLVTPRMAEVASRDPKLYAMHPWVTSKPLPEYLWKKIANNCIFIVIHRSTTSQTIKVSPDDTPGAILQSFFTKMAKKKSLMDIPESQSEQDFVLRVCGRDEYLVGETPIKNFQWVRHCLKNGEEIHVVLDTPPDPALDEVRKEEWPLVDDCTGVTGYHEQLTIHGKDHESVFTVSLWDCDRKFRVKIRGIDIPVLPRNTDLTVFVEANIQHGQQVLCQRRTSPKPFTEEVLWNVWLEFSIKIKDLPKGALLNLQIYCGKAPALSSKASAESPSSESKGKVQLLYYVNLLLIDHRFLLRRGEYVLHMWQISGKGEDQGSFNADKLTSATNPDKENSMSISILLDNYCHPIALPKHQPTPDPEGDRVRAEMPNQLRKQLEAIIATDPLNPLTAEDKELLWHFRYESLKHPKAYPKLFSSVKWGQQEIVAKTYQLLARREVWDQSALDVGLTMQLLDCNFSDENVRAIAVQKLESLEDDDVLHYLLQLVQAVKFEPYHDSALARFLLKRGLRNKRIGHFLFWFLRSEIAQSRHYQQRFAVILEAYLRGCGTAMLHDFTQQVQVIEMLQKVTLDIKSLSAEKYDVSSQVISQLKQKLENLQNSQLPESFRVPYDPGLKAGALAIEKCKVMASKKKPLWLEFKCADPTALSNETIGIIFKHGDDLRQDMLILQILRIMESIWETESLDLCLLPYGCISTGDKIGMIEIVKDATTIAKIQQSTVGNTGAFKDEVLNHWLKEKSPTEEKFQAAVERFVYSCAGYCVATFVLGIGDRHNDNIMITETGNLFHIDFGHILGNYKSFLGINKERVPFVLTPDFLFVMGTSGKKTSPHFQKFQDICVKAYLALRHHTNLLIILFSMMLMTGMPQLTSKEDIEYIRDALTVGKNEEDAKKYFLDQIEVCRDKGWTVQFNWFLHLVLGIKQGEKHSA

IC50	Structure (SMILES)
120 nM	COc1ncc(-c2cccc3nc([C@@H]4C[C@H](OC)CN4c4nc(N)nc(C)c4C#N)n(-c4ccccc4)c(=O)c23)cn1 [Example 12, 2-Amino-4-((2S,4S)-4-methoxy-2-(5-(2-methoxypyrimidin-5-yl)-4-oxo-3-phenyl-3,4-dihydroquinazolin-2-yl)pyrrolidin-1-yl)-6-methylpyrimidine-5-carbonitrile]
210 nM	Cc1ccccc1-n1c([C@@H]2CCCN2c2ncnc(N)c2C#N)nc2cccc(-c3cnn(C)c3)c2c1=O [Example 14, (S)-4-Amino-6-(2-(5-(1-methyl-1H-pyrazol-4-yl)-4-oxo-3-(otolyl)-3,4-dihydroquinazolin-2-yl)pyrrolidin-1-yl)pyrimidine-5-carbonitrile]
> 10000 nM	Cn1cnc(-c2cccc3nc([C@@H]4CCCN4c4ncnc(N)c4C#N)n(-c4ccccc4)c(=O)c23)c1 [Example 15, (S)-4-Amino-6-(2-(5-(1-methyl-1H-imidazol-4-yl)-4-oxo-3-phenyl-3,4-dihydroquinazolin-2-yl)pyrrolidin-1-yl)pyrimidine-5-carbonitrile]
55 nM	Cc1nc(N)nc(N2C[C@@H](O)C[C@H]2c2nc3cccc(-c4cnn(C)c4)c3c(=O)n2-c2ccccc2)c1C#N [Example 16, 2-Amino-4-((2S,4S)-4-hydroxy-2-(5-(1-methyl-1H-pyrazol-4-yl)-4-oxo-3-phenyl-3,4-dihydroquinazolin-2-yl)pyrrolidin-1-yl)-6-methylpyrimidine-5-carbonitrile]
290 nM	Cc1nc(N)nc(N2CCC[C@H]2c2nc3cccc(-c4cncnc4)c3c(=O)n2-c2ccccc2)c1C#N [Example 17, (S)-2-Amino-4-methyl-6-(2-(4-oxo-3-phenyl-5-(pyrimidin-5-yl)-3,4-dihydroquinazolin-2-yl)pyrrolidin-1-yl)pyrimidine-5-carbonitrile]
16 nM	COc1cncc(-c2cccc3nc([C@@H]4CCCN4c4nc(N)nc(C)c4C#N)n(-c4ccccc4)c(=O)c23)c1 [Example 18, (S)-2-Amino-4-(2-(5-(5-methoxypyridin-3-yl)-4-oxo-3-phenyl-3,4-dihydroquinazolin-2-yl)pyrrolidin-1-yl)-6-methylpyrimidine-5-carbonitrile]
220 nM	Cc1ncc(-c2cccc3nc([C@@H]4CCCN4c4nc(N)nc(C)c4C#N)n(-c4ccccc4)c(=O)c23)cn1 [Example 19, (S)-2-Amino-4-methyl-6-(2-(5-(2-methylpyrimidin-5-yl)-4-oxo-3-phenyl-3,4-dihydroquinazolin-2-yl)pyrrolidin-1-yl)pyrimidine-5-carbonitrile]
270 nM	Cc1nc(N)nc(N2CCC[C@H]2c2nc3cccc(-c4cccnc4)c3c(=O)n2-c2ccccc2)c1C#N [Example 20, (S)-2-Amino-4-methyl-6-(2-(4-oxo-3-phenyl-5-(pyridin-3-yl)-3,4-dihydroquinazolin-2-yl)pyrrolidin-1-yl)pyrimidine-5-carbonitrile]
1100 nM	COc1ccc(-c2cccc3nc([C@@H]4CCCN4c4nc(N)nc(C)c4C#N)n(-c4ccccc4)c(=O)c23)cn1 [Example 21, (S)-2-Amino-4-(2-(5-(6-methoxypyridin-3-yl)-4-oxo-3-phenyl-3,4-dihydroquinazolin-2-yl)pyrrolidin-1-yl)-6-methylpyrimidine-5-carbonitrile]
18 nM	COc1ncc(-c2cccc3nc([C@@H]4C[C@H](O)CN4c4nc(N)nc(C)c4C#N)n(-c4ccccc4)c(=O)c23)cn1 [Example 22, 2-Amino-4-((2S,4S)-4-hydroxy-2-(5-(2-methoxypyrimidin-5-yl)-4-oxo-3-phenyl-3,4-dihydroquinazolin-2-yl)pyrrolidin-1-yl)-6-methylpyrimidine-5-carbonitrile]
9 nM	Cc1nc(N)nc(N2C[C@@H](O)C[C@H]2c2nc3cccc(-c4cccnc4)c3c(=O)n2-c2ccccc2)c1C#N [Example 24, 2-Amino-4-((2S,4S)-4-hydroxy-2-(4-oxo-3-phenyl-5-(pyridin-3-yl)-3,4-dihydroquinazolin-2-yl)pyrrolidin-1-yl)-6-methylpyrimidine-5-carbonitrile]
49 nM	COc1cncc(-c2cccc3nc([C@@H]4C[C@H](O)CN4c4nc(N)nc(C)c4C#N)n(-c4ccccc4)c(=O)c23)c1 [Example 25, 2-Amino-4-((2S,4S)-4-hydroxy-2-(5-(5-methoxypyridin-3-yl)-4-oxo-3-phenyl-3,4-dihydroquinazolin-2-yl)pyrrolidin-1-yl)-6-methylpyrimidine-5-carbonitrile]
170 nM	Cc1nc(N)nc(N2C[C@@H](O)C[C@H]2c2nc3cccc(-c4cncnc4)c3c(=O)n2-c2ccccc2)c1C#N [Example 26, 2-Amino-4-((2S,4S)-4-hydroxy-2-(4-oxo-3-phenyl-5-(pyrimidin-5-yl)-3,4-dihydroquinazolin-2-yl)pyrrolidin-1-yl)-6-methylpyrimidine-5-carbonitrile]
63 nM	COc1ccc(-c2cccc3nc([C@@H]4C[C@H](O)CN4c4nc(N)nc(C)c4C#N)n(-c4ccccc4)c(=O)c23)cn1 [Example 27, 2-Amino-4-((2S,4S)-4-hydroxy-2-(5-(6-methoxypyridin-3-yl)-4-oxo-3-phenyl-3,4-dihydroquinazolin-2-yl)pyrrolidin-1-yl)-6-methylpyrimidine-5-carbonitrile]
120 nM	Cc1nc(N)nc(N2C[C@@H](O)C[C@H]2c2nc3cccc(-c4cnn(CCO)c4)c3c(=O)n2-c2ccccc2)c1C#N [Example 28, 2-Amino-4-((2S,4S)-4-hydroxy-2-(5-(1-(2-hydroxyethyl)-1H-pyrazol-4-yl)-4-oxo-3-phenyl-3,4-dihydroquinazolin-2-yl)pyrrolidin-1-yl)-6-methylpyrimidine-5-carbonitrile]
38 nM	CCOc1ncc(-c2c(F)ccc3nc([C@@H]4C[C@H](O)CN4c4nc(N)nc(C)c4C#N)n(-c4ccccc4)c(=O)c23)cn1 [Example 29, 2-Amino-4-((2S,4S)-2-(5-(2-ethoxypyrimidin-5-yl)-6-fluoro-4-oxo-3-phenyl-3,4-dihydroquinazolin-2-yl)-4-hydroxypyrrolidin-1-yl)-6-methylpyrimidine-5-carbonitrile]
11 nM	Cc1nc(N)nc(N2C[C@@H](F)C[C@H]2c2nc3cccc(-c4cnn(C)c4)c3c(=O)n2-c2ccccc2)c1C#N [Example 30, 2-Amino-4-((2S,4S)-4-fluoro-2-(5-(1-methyl-1H-pyrazol-4-yl)-4-oxo-3-phenyl-3,4-dihydroquinazolin-2-yl)pyrrolidin-1-yl)-6-methylpyrimidine-5-carbonitrile]
240 nM	Cc1nc(N)nc(N2C[C@@H](O)C[C@H]2c2nc3ccc(F)c(-c4cn(C)cn4)c3c(=O)n2-c2ccccc2)c1C#N [Example 31, 2-Amino-4-((2S,4S)-2-(6-fluoro-5-(1-methyl-1H-imidazol-4-yl)-4-oxo-3-phenyl-3,4-dihydroquinazolin-2-yl)-4-hydroxypyrrolidin-1-yl)-6-methylpyrimidine-5-carbonitrile]
720 nM	CCOc1ncc(-c2cccc3nc([C@@H]4CCCN4c4nc(N)nc(C)c4C#N)n(-c4ccccc4)c(=O)c23)cn1 [Example 32, (S)-2-Amino-4-(2-(5-(2-ethoxypyrimidin-5-yl)-4-oxo-3-phenyl-3,4-dihydroquinazolin-2-yl)pyrrolidin-1-yl)-6-methylpyrimidine-5-carbonitrile]
120 nM	N#Cc1c(N)ncnc1N1CCC[C@H]1c1nc2cccc(C#CCO)c2c(=O)n1-c1ccccc1 [Example 33, (S)-4-Amino-6-(2-(5-(3-hydroxyprop-1-yn-1-yl)-4-oxo-3-phenyl-3,4-dihydroquinazolin-2-yl)pyrrolidin-1-yl)pyrimidine-5-carbonitrile]
